This note sets out measurements from ChEMBL document CHEMBL1129209, “Molecular interactions of all possible regioisomers of synthetic myo-inositol phosphates with inositol 1,4,5-trisphosphate 3-kinase” (Bioorg Med Chem Lett, 1997).

pIC50: −log10 of the molar value.

The test is described as follows: Inhibition of Inositol 1,4,5-trisphosphate 3-kinase (IP3K) from rat brain.
Broadly, the pIC50 is the negative decadic logarithm of the IC50, by convention in mol/L. Read a low pIC50 as a large IC50. `O=P(O)(O)O[C@H]1[C@H](O)[C@@H](OP(=O)(O)O)[C@H](OP(=O)(O)O)[C@@H](OP(=O)(O)O)[C@H]1O` (stereo in doubt; form 1) had a pIC50 of 4.38.
The figure for `O=P(O)(O)O[C@@H]1[C@H](O)[C@H](O)[C@@H](OP(=O)(O)O)[C@H](OP(=O)(O)O)[C@H]1O` (stereo in doubt; form 1) [INS(1,4,5)P3] is 5.45; for `O=P(O)(O)O[C@H]1[C@H](O)[C@@H](OP(=O)(O)O)[C@H](OP(=O)(O)O)[C@@H](OP(=O)(O)O)[C@H]1O` (stereo in doubt; form 2) it is 4.25.
The figure for `O=P(O)(O)O[C@@H]1[C@H](O)[C@H](O)[C@@H](OP(=O)(O)O)[C@H](OP(=O)(O)O)[C@H]1O` (stereo in doubt; form 2) [INS(1,4,5)P3] is 4.91; for `O=P(O)(O)O[C@H]1[C@H](O)[C@@H](OP(=O)(O)O)[C@H](OP(=O)(O)O)[C@@H](OP(=O)(O)O)[C@H]1O` (stereo in doubt; form 3) it is 3.66.
Regarding `O=P(O)(O)O[C@H]1[C@H](O)[C@@H](OP(=O)(O)O)[C@H](OP(=O)(O)O)[C@@H](OP(=O)(O)O)[C@H]1O` (stereo in doubt; form 4), the pIC50 was 4.19.
